# Results reported in patent US20080025986A1, “Methods of Treating Tnf-Mediated Disorders” (priority 2003, published 2008).
# Columns and labels:
# Type in all cases: cell-based
# ERK = assay: Western blot, TNF-induced ERK activation in cells; conditions: TNF cascade, P<0.01
# Experimental: (§1) To explore the possibility that Pirfenidone could be used to treat NASH, the effects of pirfenidone on cells stimulated with Insulin in the presence or absence of TNF-α were examined.
# (§2) When cells were treated with Pirfenidone, TNF-α mediated Insulin resistance was ameliorated. […] More specifically, Pirfenidone decreased ERK activation by 7-fold, p38 MAPK by 2-fold and RAF activation by 2-fold (P<0.01 for all observations). In addition, Pirfenidone decreased the TNF-α mediated phosphorylation of the transcription activation factor CREB by 2-fold (P<0.01). […] In addition, Pirfenidone increased insulin-induced phosphorylation of IRS1. […] The results are depicted in FIGS. 3 and 4. FIG. 3 depicts inhibition of MAPK by pirfenidone. FIG. 4 depicts enhancement of insulin signaling by pirfenidone.
# (§3) FIG. 5 depicts various downstream signaling events that are triggered by TNF binding to a TNF receptor. TNF-mediated activation of various serine-threonine kinases are differentially affected by pirfenidone. Therefore, activation of transcription factors downstream of a given kinase will be differentially affected by pirfenidone. FIG. 6 depicts pirfenidone inhibition of TNF-induced ERK activation. FIG. 7 depicts pirfenidone inhibition of TNF-induced p38 MAPK activation. FIG. 8 depicts pirfenidone inhibition of TNF-induced activation of the transcription factor CREB. […]
# p38 MAPK = assay: Western blot, TNF-induced p38 MAPK activation in cells; conditions: TNF cascade, P<0.01
# Experimental: as §1, §2, §3
# CREB = assay: TNF-α mediated phosphorylation/activation of transcription factor CREB
# Experimental: as §1, §2, §3
# IRS1 = assay: Insulin signaling in cells stimulated with insulin in the presence or absence of TNF-α
# Experimental: as §1, §2
# JNK = assay: TNF-induced JNK activation; conditions: FIG. 11
# Description: (§4) FIG. 5 depicts various downstream signaling events that are triggered by TNF binding to a TNF receptor. TNF-mediated activation of various serine-threonine kinases are differentially affected by pirfenidone. Therefore, activation of transcription factors downstream of a given kinase will be differentially affected by pirfenidone. FIG. 6 depicts pirfenidone inhibition of TNF-induced ERK activation. FIG. 7 depicts pirfenidone inhibition of TNF-induced p38 MAPK activation. FIG. 8 depicts pirfenidone inhibition of TNF-induced activation of the transcription factor CREB. FIG. 9 depicts pirfenidone inhibition of TNF-induced activation of RAF kinase. FIG. 10 depicts pirfenidone inhibition of TNF-induced activation of AKT. FIG. 11 depicts pirfenidone potentiation of TNF-induced JNK activation.
# (§5) While phosphorylation of CREB is diminished due to decreased activity of p38 in the presence of pirfenidone, phosphorylation of the JNK-phosphorylated transcription factor ATF2 is potentiated in the presence of pirfenidone. FIG. 12 depicts pirfenidone potentiation of ATF2. Thus, pirfenidone potentiates TNF-induced activation of the JNK kinase pathway.
# AP-1 = AP-1 activation
# AKT = assay: TNF-induced activation of AKT; conditions: FIG. 10
# Description: as §4
# RAF = assay: Western blot, TNF-induced RAF kinase activation in cells; conditions: TNF cascade, P<0.01
# Experimental: as §1, §2, §3
# ATF2 = assay: Phosphorylation of JNK-phosphorylated transcription factor ATF2; conditions: FIG. 12
# Description: as §5
compound,measurement,setting,value
"Cc1ccc(=O)n(-c2ccccc2)c1 [Pirfenidone, 5-methyl-1-phenyl-2-(1H)-pyridone]",decrease of ERK activation,ERK,7 fold
same,decrease of p38 MAPK activation,p38 MAPK,2 fold
same,decrease of TNF-α mediated phosphorylation of CREB,CREB; P<0.01,2 fold
same,upper limit of inhibition of CREB activation,CREB; at maximal pirfenidone concentrations,≤ 75%
same,effect on TNF-α mediated insulin resistance,IRS1; cells treated with TNF-α,ameliorated
same,effect on TNF-α-mediated inhibition of insulin-induced IRS1 tyrosine phosphorylation,IRS1; insulin plus TNF-α,blocks
same,effect on insulin-induced phosphorylation of IRS1,IRS1; insulin stimulation,increased
same,effect on TNF-induced JNK activation,JNK,potentiation
same,effect on AP-1 activation,AP-1,potentiates
same,effect on TNF-induced activation of AKT,AKT,inhibition
same,decrease of RAF activation,RAF,2 fold
same,effect on phosphorylation of ATF2,ATF2,potentiated
